The results in this text go back to patent US20260248799A1, “COMBINATIONS OF RETINALDEHYDE DEHYDROGENASE 1 (RALDH1) INHIBITORS AND IMMUNOSTIMULATORS AND METHODS USING SAME” (The Trustees of the University of Pennsylvania, priority 2023, published 2026).

Experiment [1] addresses T1, Glutamate, Metabotropic, mGlu5 (Homo sapiens, UniProt P41594).
T1 construct: purchased Eurofins Cereps Panlabs
Put plainly: Safetyscreen: mGlu5. It is filed as binding. The conditions noted are these: read-out: % Inh. Glutamate, Metabotropic, mGlu5.

Experiment [2] relates to Glycine, Strychnine-Sensitive. Put plainly: Safetyscreen: Glycine, Strychnine-Sensitive. It is filed as binding, rat. As to conditions: 10 μM.
The target in experiment [3] is T2, Platelet Activating Factor (PAF) (Homo sapiens, UniProt P25105).
T2 construct: Eurofins Cereps Panlabs (contract panel)
Put plainly: Safetyscreen: PAF. It is filed as binding. As to conditions: read-out: % Inh. Platelet Activating Factor (PAF).

Experiment [4] addresses T3, Adrenergic β1 (Homo sapiens, UniProt P08588).
T3 construct: Eurofins Cerep Panlabs (contract panel)
Put plainly: Safetyscreen: Adrenergic β1. The experiment is classed as binding. As to conditions: read-out: % Inh. Adrenergic β1.

T2 sequence (P25105 whole entry): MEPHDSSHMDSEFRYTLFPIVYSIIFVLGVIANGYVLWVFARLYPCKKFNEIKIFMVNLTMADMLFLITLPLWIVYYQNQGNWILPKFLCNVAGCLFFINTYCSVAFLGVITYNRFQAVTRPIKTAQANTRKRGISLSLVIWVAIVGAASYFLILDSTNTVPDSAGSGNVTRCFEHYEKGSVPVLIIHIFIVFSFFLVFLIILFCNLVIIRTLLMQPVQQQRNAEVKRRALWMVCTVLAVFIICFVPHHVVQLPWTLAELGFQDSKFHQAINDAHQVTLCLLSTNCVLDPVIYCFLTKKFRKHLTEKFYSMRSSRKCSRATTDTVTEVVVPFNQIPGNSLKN
T3 sequence (P08588 whole entry): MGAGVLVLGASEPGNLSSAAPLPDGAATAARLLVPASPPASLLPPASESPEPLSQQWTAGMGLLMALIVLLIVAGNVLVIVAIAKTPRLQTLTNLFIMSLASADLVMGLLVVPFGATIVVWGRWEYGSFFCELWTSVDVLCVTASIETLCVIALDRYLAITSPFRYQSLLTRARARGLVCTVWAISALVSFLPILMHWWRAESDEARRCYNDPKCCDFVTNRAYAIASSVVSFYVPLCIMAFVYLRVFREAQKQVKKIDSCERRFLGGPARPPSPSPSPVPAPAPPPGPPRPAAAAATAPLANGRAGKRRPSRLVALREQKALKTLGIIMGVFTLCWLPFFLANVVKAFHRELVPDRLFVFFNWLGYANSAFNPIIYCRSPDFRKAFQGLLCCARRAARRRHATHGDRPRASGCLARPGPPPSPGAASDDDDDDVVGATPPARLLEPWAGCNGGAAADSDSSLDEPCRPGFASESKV
T1 sequence (P41594 21-1212): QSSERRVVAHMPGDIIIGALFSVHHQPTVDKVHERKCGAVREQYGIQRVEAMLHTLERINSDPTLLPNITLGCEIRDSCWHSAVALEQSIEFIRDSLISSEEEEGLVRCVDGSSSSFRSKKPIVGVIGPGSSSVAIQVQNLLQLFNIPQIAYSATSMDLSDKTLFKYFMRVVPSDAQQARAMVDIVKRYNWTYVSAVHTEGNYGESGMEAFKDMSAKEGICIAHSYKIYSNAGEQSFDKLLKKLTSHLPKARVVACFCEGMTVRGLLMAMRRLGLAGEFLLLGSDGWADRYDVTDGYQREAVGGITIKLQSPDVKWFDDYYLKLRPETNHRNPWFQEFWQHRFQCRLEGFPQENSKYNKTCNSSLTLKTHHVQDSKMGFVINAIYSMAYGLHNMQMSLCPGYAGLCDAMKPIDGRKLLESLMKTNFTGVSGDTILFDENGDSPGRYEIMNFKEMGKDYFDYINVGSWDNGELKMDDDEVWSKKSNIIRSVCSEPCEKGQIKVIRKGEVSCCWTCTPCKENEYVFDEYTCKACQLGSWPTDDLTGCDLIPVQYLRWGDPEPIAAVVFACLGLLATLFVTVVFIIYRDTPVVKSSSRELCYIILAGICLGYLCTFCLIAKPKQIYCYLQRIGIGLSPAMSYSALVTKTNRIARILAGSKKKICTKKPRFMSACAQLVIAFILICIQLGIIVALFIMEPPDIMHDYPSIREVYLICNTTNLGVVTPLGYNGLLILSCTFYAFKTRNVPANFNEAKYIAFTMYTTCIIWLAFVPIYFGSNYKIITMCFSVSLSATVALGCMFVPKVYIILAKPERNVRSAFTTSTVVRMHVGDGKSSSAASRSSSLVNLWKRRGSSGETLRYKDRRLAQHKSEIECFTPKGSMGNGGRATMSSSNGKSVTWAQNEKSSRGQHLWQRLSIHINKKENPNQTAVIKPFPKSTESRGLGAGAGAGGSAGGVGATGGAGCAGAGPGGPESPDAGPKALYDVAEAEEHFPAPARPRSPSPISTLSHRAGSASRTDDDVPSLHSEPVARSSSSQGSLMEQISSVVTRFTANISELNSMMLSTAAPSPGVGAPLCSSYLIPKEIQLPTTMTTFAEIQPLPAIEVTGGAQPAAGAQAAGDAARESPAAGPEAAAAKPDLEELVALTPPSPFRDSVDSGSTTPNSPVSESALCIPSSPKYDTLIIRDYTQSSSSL

As to `CS(=O)(=O)N1CCN(C(=O)c2cnc3ccc(F)cc3c2N2CCC(C#N)(c3ccccc3)CC2)CC1` [Compound C-86, 1-(6-fluoro-3-(4-(methylsulfonyl)piperazine-1-carbonyl)quinolin-4-yl)-4-phenylpiperidine-4-carbonitrile], the results for the inhibition at 10 µM in experiment [1], in experiment [3] and in experiment [4] were 16%, 32% and 3%, respectively. Further, in experiment [2], the “% Inh. Glycine, Strychnine-Sensitive” value is listed as 23%.
